Measurements published in patent publication US20180112258A1, “MEDICAL USES AND METHODS FOR TREATING CANCER USING MONOPOLAR SPINDLE 1 (MPS1) KINASE INHIBITORS” (THE INSTITUTE OF CANCER RESEARCH: ROYAL CANCER HOSPITAL, priority 2015, published 2018).
Residue numbers refer to the chain shown, from its start. Like-named read-outs stand apart in the source and are kept apart here.

Legend:
[1] = system: parental HCT116 cells; experiment: Time-lapse microscopy, time in mitosis, parental HCT116; type: cell-based, human
Description: (§1) For analysis by immunofluorescence, cells were fixed in 1% formaldehyde for 5 min at room temperature, quenched in glycine, washed in PBS-Triton X-100 (0.1% PBS-T) and incubated for 1 hour in primary antibodies in PBS-T: MAD2 (Bethyl Laboratories Inc., A300-301A), CDC2020 (Millipore, MAB3775), MPS1 (Millipore, 05-682), MPS1 pT33pS37 (Life Technologies, 44-1325G) and ACA (ImmunoVision, HST-0100). After PBS-T washes, cells were incubated with fluorescent-conjugated secondary antibodies (Life Technologies), stained with DAPI (Life Technologies) and mounted onto slides with Vectashield (Vector Labs). Images were acquired using a Zeiss LSM 710 confocal microscope and processed using Velocity 3D Image analysis software (PerkinElmer). Time-lapse micrscopy was performed in 96-well Ibidi plate (Thistle Scientific) using a Diaphot inverted microscope (Nikon), in a humidified CO2 chamber at 37° C., using a motorized stage (Prior Scientific), controlled by Simple PCI software (Compix).

[2] = system: HCT116 cells containing MPS1 p.C604W; experiment: Cell viability assay, HCT116 NvR clones with MPS1 p.C604W (NvR12 etc.); settings: for GI50: Homo sapiens; for resistance / potency in cell viability assay vs parental: p.C604W (NvR12); for Resistance conferred by mutation p.C604W: summary table of inhibitors vs mutations
[3] = system: HCT116 cells containing MPS1 p.M600T; experiment: Cell viability assay, HCT116 NvR clones with MPS1 p.M600T (NvR1 etc.); settings: for GI50: Homo sapiens; for Resistance conferred by mutation p.M600T: summary table of inhibitors vs mutations
[4] = biological target: T1, recombinant full-length wild-type MPS1 (Homo sapiens, UniProt P33981); experiment: Recombinant MPS1 kinase assay (electrophoretic mobility shift), WT; type: biochemical; settings: mean ± SD, quadruplicate
T1 construct: For protein expression of full-length MPS1 proteins, Sf9 insect cells were grown at 27° C; made in house; host or cells: Sf9 insect cells (baculovirus, modified pFastBac1)
T1 sequence (P33981 1-857): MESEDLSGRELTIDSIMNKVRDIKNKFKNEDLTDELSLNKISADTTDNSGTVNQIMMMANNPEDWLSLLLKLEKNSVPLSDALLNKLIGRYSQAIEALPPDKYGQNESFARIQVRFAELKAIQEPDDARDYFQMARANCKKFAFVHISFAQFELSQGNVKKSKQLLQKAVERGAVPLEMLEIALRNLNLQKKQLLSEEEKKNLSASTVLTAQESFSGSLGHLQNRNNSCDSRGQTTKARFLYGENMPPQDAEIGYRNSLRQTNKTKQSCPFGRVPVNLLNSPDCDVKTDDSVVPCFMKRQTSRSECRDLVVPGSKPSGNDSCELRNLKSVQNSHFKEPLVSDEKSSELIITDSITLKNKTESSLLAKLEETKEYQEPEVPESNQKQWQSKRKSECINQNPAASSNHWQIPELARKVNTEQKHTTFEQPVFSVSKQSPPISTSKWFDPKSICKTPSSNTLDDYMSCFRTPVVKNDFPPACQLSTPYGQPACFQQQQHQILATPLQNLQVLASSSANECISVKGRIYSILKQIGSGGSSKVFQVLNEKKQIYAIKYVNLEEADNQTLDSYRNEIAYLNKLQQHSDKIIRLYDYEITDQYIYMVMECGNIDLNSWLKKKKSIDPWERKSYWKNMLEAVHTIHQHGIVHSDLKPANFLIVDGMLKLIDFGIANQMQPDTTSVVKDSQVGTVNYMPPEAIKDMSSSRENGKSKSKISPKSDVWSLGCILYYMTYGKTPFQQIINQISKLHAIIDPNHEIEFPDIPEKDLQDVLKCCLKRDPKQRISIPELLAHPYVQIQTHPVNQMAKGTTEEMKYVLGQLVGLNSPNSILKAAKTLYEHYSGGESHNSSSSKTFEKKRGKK
Description: (§2) For high ATP concentration assays, 1 mM ATP was used. An ECHO® 550 (Labcyte Inc) acoustic dispenser was used to generate duplicate 8 point dilution curves directly into 384-well low-volume polystyrene assay plates (Corning Life Sciences). The reaction was carried out for 90 min at room temperature.

[5] = biological target: T2, recombinant full-length MPS1 p.C604W (Homo sapiens, UniProt P33981, C604W); experiment: Recombinant MPS1 kinase assay (electrophoretic mobility shift), p.C604W; type: biochemical; settings: for IC50: C604W, mean ± SD, quadruplicate
T2 construct: made in house; host or cells: Sf9 insect cells (baculovirus, modified pFastBac1)
T2 sequence (P33981 1-857 C604W): T1 sequence (P33981 1-857) with C604W
Description: as §2

[6] = system: taxol or nocodazole-induced SAC; experiment: Abrogation of taxol or nocodazole-induced SAC (mitotic index, MPM2 staining and flow cytometry); type: cell-based; settings: within 1 hour following inhibitor treatment; 0.6 μM CCT251455
Description: Cells were fixed overnight at −20° C. in 70% ethanol, washed in PBS, then incubated in 10 μg/ml propidium iodide and 0.5% RNase (Sigma) for 30 min and then analysed using LSRII flow cytometer (BD Biosciences). To stain for mitosis, cells were incubated for 1 hour at 4° C. with anti-MPM2 antibodies (Millipore, 05-368), then 1 hour at 4° C. with FITC-conjugated secondary antibodies (Life technology).

[7] = system: kinetochore localisation of SAC proteins in HeLa cells; experiment: Immunofluorescence of kinetochore proteins in HeLa cells; type: cell-based
Description: as §1

[8] = system: parental HCT116 cells; experiment: Flow cytometry cell cycle profiles, parental HCT116; type: cell-based, human
Description: Cells were fixed overnight at −20° C. in 70% ethanol, washed in PBS, then incubated in 10 μg/ml propidium iodide and 0.5% RNase (Sigma) for 30 min and then analysed using LSRII flow cytometer (BD Biosciences).

[9] = system: HeLa cells; experiment: Time-lapse microscopy, time in mitosis and mitotic defects, HeLa; type: cell-based; settings: 0.6 μM CCT251455
Description: as §1

[10] = system: parental HCT116 cells; experiment: Cell viability assay (CellTiterGlo, 4 days), parental HCT116; type: cell-based, human
[11] = ATP at Km, read-out: IC50 values at ATP Km
[12] = IC50 values at 1 mM ATP, 1 mM ATP

## CCc1cccc(CC)c1NC(=O)c1nn(C)c2c1CCc1cnc(Nc3ccc(C(=O)NC4CCN(C)CC4)cc3OC(F)(F)F)nc1-2 [NMS-P715]
[1]; 1 μM NMS-P715
  mitotic exit (SAC override): rapidly exited mitosis
[2]; HCT-116, read-out: GI50 NMS-P715, NvR9, p.C604W
  GI50: 2150 nM
[2]; HCT-116, read-out: GI50 NMS-P715, NvR12, p.C604W
  GI50: 2430 nM
[2]; HCT-116, read-out: GI50 NMS-P715, NvR13, p.C604W
  GI50: 4250 nM
[2]; HCT-116, read-out: GI50 NMS-P715, NvR14, p.C604W
  GI50: 3730 nM
[2]; HCT-116, read-out: GI50 NMS-P715, NvR15, p.C604W
  GI50: 3820 nM
[2]; HCT-116, read-out: GI50 NMS-P715, NvR16, p.C604W
  GI50: 3260 nM
[2]; HCT-116, read-out: GI50 NMS-P715, NvR17, p.C604W
  GI50: 3760 nM
[2]; HCT-116, read-out: GI50 NMS-P715, NvR18, p.C604W
  GI50: 3760 nM
[2]; HCT-116, read-out: GI50 NMS-P715, NvR19, p.C604W
  GI50: 3500 nM
[2]; HCT-116, read-out: GI50 NMS-P715, NvR20, p.C604W
  GI50: 3860 nM
[2]; HCT-116, read-out: GI50 NMS-P715, NvR21, p.C604W
  GI50: 2120 nM
[2]; HCT-116, read-out: GI50 NMS-P715, NvR22, p.C604W
  GI50: 2200 nM
[2]; HCT-116, read-out: GI50 NMS-P715, NvR23, p.C604W
  GI50: 2270 nM
[2]; HCT-116, read-out: GI50 NMS-P715, NvR24, p.C604W
  GI50: 2240 nM
[2]; HCT-116, read-out: GI50 NMS-P715, NvR25, p.C604W
  GI50: 4330 nM
[2]; HCT-116, read-out: GI50 NMS-P715, NvR26, p.C604W
  GI50: 2250 nM
[2]; HCT-116, read-out: GI50 NMS-P715, NvR29, p.C604W
  GI50: 4080 nM
[2]; HCT-116, read-out: GI50 NMS-P715, NvR30, p.C604W
  GI50: 1240 nM
[2]; HCT-116, read-out: GI50 NMS-P715, NvR34, p.C604W
  GI50: 2090 nM
[2]; HCT-116, read-out: GI50 NMS-P715, NvR35, p.C604W
  GI50: 2440 nM
[3]; HCT-116, read-out: GI50 NMS-P715, NvR1, p.M600T
  GI50: 2540 nM
[3]; HCT-116, read-out: GI50 NMS-P715, NvR2, p.M600T
  GI50: 1850 nM
[3]; HCT-116, read-out: GI50 NMS-P715, NvR4, p.M600T
  GI50: 2250 nM
[3]; HCT-116, read-out: GI50 NMS-P715, NvR5, p.M600T
  GI50: 2480 nM
[3]; HCT-116, read-out: GI50 NMS-P715, NvR6, p.M600T
  GI50: 2320 nM

## Cn1cc(-c2ccc(Nc3ccc(C#N)c(NC4CCCCC4)n3)cc2OCC#N)cn1 [ONCOII]
[4]; [11]
  IC50: 10.8 ± 3.7 nM
[4]; [12]
  IC50: 110 ± 18 nM
[5]; [11]
  IC50: 2600 ± 650 nM
[5]; [12]
  IC50: 8300 ± 2900 nM
[5]; recombinant full-length MPS1 (Table 2)
  fold resistance of recombinant p.C604W vs wild-type protein: 75 fold
[2]
  resistance / potency in cell viability assay vs parental: able to confer resistance
  Resistance conferred by mutation p.C604W: R
[3]; p.M600T (NvR1)
  resistance in cell viability assay vs parental: able to confer resistance
[3]
  Resistance conferred by mutation p.M600T: R

## Cn1cc(-c2cc3cnc(Nc4ccc(-c5cncn5C)cc4Cl)cc3n2C(=O)OC(C)(C)C)cn1 [CCT251455, Tert-Butyl 6-(2-Chloro-4-(1-methyl-1H-imidazol-5-yl)phenylamino)-2-(1-methyl-1H-pyrazol-4-yl)-1H-pyrrolo[3,2-c]pyridine-1-carboxylate]
[6]
  cells that had exited mitosis: ~100%
[7]; 0.6 μM CCT251455
  MPS1 kinetochore localisation: increased
  MPS1 pT33/S37 and pT676 signals: no longer visible
  kinetochore recruitment of BUB1 and BUBR1: reduced, but still visible by microscopy
  kinetochore recruitment of MAD2, MAD1, ZW10 and CDC20: severely inhibited
[7]; controls
  kinetochore localisation of ZWINT-1, CENP-E, CENP-F and CENP-A pS7: remained unaffected
[8]; HCT116, 24 hour treatment
  concentration at which cell cycle profiles were abolished: 0.32 µM
[9]
  cells with unaligned chromosomes: 98%
  time to exit mitosis: ~17 min

## Cc1ncc(-c2ccc(Nc3cc4c(cn3)cc(-c3cnn(C)c3)n4C(=O)OC(C)C)c(F)c2)n1C [Compound 3, isopropyl 6-(4-(1,2-dimethyl-1H-imidazol-5-yl)-2-fluorophenylamino)-2-(1-methyl-1H-pyrazol-4-yl)-1H-pyrrolo[3,2-c]pyridine-1-carboxylate]
[2]
  resistance / potency in cell viability assay vs parental: more potent
[3]; p.M600T (NvR1)
  fold resistance in cell viability assay vs parental: ~2 fold
[3]
  Resistance conferred by mutation p.M600T: R

## CC(C)(C)Nc1nc(Nc2ccc(C(N)=O)cc2)cc(N)c1C#N [SNG12]
[2]
  Resistance conferred by mutation p.C604W: R
[3]
  Resistance conferred by mutation p.M600T: R

## COc1cc(OC2CCN(C)CC2)ccc1Nc1ncc2c(n1)n(C1CCCC1)c(=O)n2C [AZ3146]
[8]; 1 and 2 μM AZ3146, 24 hours
  effect on cell cycle profile: G1 and G2/M peaks are increasingly abolished
[1]; 2 μM AZ3146
  time to exit mitosis: 10 min
[10]
  lethal concentration in cell viability assays: 2 µM
[10]; Homo sapiens, HCT-116
  GI50: 800 nM
